Like-named read-outs stand apart in the source and are kept apart here.
What was measured:
Type in all cases: cell-based
[1] = tested on: L-type channels (α1C+α2δ+β1b cDNA subunits); assay: Whole cell patch clamp, tonic and frequency dependent block, L-type channels in HEK 293 (Example 5); details: in general
Experimental: (§1) N-type calcium channel blocking activity was assayed in human embryonic kidney cells, HEK 293, stably transfected with the rat brain N-type calcium channel subunits (α1B+α2δ+β1b cDNA subunits). Alternatively, N-type calcium channels (α1B+α2δ+β1b cDNA subunits), L-type channels (α1C+α2δ+β1b cDNA subunits) and P/Q-type channels (α1A+α2δ+β1b cDNA subunits) were transiently expressed in HEK 293 cells. Briefly, cells were cultured in Dulbecco's modified eagle medium (DMEM) supplemented with 10% fetal bovine serum, 200 U/ml penicillin and 0.2 mg/ml streptomycin at 37° C. with 5% CO2. At 85% confluency cells were split with 0.25% trypsin/1 mM EDTA and plated at 10% confluency on glass coverslips. At 12 hours the medium was replaced and the cells transiently transfected using a standard calcium phosphate protocol and the appropriate calcium channel cDNAs. Fresh DMEM was supplied and the cells transferred to 28° C./5% CO2. Cells were incubated for 1 to 2 days to whole cell recording.
(§2) Whole cell patch clamp experiments were performed using an Axopatch 200B amplifier (Axon Instruments, Burlingame, Calif.) linked to a personal computer equipped with pCLAMP software. The external and internal recording solutions contained, respectively, 5 mM BaCl2, 1 mM MgCl2, 10 mM HEPES, 40 mM TEACl, 10 mM glucose, 87.5 mM CsCl (pH 7.2) and 108 mM CsMS, 4 mM MgCl2, 9 mM EGTA, 9 mM HEPES (pH 7.2). Currents were typically elicited from a holding potential of −80 mV to +10 mV using Clampex software (Axon Instruments). Typically, currents were first elicited with low frequency stimulation (0.03 Hz) and allowed to stabilize prior to application of the compounds. The compounds were then applied during the low frequency pulse trains for two to three minutes to assess tonic block, and subsequently the pulse frequency was increased to 0.2 Hz to assess frequency dependent block. Data were analyzed using Clampfit (Axon Instruments) and SigmaPlot 4.0 (Jandel Scientific).
(§3) Tables 2 and 3 show the results of similar experiments conducted with P/Q-type and L-type channels expressed in HEK 293 cells.

[2] = molecular target: T1, L-type channels (α1C+α2δ+β1b cDNA subunits) (UniProt P22002); assay: as above
T1 construct: other: α1C (L-type), 100 nM, 0.03 Hz; other: α1C (L-type), 100 nM, 0.2 Hz; other: α1C (L-type), 0.03 Hz; other: α1C (L-type), 0.2 Hz
Experimental: as §1, §2, §3

[3] = molecular target: T2, N-type calcium channels (α1B+α2δ+β1b cDNA subunits) (Rattus norvegicus, UniProt Q02294); assay: Whole cell patch clamp, tonic and frequency dependent block, N-type channels in HEK 293 (Example 5); details: for % Block (100 nM) 0.03 Hz: 0.03 Hz (tonic block); for % Block (100 nM) 0.2 Hz: 0.2 Hz (frequency dependent block)
T2 construct: expressed in transfected cells
T2 sequence (Q02294 whole entry): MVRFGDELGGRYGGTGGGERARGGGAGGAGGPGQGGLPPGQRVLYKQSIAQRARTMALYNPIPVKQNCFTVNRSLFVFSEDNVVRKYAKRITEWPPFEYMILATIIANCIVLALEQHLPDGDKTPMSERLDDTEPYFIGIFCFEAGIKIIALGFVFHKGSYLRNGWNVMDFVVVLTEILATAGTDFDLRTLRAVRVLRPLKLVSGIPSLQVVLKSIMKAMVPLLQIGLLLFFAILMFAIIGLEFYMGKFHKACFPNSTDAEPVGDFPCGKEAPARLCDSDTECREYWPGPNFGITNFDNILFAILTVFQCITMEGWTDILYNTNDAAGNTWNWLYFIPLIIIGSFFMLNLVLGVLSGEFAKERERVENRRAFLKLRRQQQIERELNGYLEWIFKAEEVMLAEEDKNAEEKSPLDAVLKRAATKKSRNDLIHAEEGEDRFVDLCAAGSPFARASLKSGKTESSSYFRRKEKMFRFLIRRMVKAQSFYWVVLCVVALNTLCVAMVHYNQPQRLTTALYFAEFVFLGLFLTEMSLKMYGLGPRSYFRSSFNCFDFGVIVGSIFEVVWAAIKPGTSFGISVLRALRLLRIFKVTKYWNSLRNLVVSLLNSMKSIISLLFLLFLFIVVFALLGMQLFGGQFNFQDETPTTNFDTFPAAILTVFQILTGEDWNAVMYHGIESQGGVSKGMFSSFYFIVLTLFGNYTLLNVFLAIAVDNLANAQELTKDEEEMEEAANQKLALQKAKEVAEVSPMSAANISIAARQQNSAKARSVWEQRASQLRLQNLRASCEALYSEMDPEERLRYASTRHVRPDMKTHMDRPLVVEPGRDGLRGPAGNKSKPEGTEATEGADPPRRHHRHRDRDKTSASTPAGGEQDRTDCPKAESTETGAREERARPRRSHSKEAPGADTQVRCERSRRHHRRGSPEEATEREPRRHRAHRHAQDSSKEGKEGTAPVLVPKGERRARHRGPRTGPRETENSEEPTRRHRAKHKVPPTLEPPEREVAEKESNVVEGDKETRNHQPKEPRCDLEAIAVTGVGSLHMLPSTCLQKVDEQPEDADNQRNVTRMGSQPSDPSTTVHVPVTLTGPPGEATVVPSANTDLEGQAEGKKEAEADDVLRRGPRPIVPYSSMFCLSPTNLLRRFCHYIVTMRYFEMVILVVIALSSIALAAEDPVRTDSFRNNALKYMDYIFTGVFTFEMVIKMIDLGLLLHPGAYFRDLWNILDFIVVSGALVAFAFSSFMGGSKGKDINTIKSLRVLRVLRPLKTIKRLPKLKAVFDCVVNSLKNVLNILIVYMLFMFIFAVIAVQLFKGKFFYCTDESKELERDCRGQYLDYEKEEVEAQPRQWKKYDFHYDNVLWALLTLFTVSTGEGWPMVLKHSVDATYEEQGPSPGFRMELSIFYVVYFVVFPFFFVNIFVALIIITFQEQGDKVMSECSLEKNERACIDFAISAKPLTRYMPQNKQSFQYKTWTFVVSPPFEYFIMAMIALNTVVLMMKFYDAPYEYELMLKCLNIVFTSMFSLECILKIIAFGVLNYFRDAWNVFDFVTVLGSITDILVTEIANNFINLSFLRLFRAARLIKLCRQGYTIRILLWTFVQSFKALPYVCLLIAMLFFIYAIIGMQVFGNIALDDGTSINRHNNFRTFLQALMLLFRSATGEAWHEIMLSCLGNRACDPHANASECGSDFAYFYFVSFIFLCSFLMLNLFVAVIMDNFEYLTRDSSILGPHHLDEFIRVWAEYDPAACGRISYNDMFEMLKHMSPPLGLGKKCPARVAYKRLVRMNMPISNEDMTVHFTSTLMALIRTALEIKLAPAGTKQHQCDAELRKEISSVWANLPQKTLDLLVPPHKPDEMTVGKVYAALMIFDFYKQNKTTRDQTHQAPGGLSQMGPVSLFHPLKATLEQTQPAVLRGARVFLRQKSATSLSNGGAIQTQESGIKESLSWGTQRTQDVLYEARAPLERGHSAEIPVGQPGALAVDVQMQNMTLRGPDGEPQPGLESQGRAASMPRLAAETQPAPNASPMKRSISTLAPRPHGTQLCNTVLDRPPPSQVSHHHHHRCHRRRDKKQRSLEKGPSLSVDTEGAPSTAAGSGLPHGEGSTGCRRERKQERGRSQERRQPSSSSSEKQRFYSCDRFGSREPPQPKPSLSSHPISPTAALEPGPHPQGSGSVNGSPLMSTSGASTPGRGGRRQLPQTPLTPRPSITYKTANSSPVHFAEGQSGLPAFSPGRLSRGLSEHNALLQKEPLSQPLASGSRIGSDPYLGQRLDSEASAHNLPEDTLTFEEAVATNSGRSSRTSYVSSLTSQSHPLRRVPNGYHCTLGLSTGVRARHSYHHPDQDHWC
T2 sequence (P54290 25-944 partner limits assumed): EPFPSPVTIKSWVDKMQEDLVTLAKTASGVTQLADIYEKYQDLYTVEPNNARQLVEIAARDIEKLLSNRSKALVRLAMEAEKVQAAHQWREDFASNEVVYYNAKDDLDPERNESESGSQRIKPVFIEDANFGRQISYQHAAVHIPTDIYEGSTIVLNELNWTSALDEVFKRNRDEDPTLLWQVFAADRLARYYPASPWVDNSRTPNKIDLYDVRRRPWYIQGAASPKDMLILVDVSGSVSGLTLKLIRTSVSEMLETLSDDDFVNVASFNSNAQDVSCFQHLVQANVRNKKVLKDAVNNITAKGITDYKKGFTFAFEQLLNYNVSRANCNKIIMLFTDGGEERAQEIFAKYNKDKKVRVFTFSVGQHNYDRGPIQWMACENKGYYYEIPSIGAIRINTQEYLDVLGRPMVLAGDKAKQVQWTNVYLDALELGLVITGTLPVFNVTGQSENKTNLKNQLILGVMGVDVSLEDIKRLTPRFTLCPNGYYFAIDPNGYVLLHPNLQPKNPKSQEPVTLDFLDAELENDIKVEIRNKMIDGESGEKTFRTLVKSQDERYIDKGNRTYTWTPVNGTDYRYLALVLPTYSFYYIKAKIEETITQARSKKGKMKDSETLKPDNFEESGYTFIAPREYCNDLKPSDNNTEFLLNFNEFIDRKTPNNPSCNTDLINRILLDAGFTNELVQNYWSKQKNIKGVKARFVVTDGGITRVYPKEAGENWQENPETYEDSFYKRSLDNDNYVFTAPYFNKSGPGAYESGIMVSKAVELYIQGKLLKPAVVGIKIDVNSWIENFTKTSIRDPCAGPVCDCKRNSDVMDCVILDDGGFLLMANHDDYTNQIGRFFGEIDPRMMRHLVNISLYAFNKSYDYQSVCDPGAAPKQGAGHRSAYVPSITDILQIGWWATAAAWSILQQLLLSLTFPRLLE
T2 sequence (P54290 945-1091 partner limits assumed): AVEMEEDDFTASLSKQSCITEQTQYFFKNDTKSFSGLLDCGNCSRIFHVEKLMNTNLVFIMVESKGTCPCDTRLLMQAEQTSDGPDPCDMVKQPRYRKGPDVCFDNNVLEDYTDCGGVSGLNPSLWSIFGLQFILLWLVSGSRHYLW
T2 sequence (P54283 whole entry partner): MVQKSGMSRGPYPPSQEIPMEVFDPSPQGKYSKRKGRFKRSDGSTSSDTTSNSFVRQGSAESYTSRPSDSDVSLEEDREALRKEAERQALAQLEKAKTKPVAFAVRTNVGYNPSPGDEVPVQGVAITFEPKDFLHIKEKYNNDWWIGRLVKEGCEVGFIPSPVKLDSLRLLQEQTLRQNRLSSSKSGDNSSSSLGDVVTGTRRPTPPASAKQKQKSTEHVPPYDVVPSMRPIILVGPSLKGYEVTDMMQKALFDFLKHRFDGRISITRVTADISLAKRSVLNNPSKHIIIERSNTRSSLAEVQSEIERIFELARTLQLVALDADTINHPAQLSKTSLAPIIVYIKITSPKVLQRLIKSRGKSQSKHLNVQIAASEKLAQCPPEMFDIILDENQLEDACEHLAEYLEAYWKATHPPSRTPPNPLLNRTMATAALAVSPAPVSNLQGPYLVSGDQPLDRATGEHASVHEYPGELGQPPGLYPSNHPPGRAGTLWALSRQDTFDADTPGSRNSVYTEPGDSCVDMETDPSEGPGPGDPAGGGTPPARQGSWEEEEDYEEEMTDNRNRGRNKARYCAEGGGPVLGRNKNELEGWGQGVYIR
Experimental: as §1, §2

[4] = tested on: P/Q-type channels (α1A+α2δ+β1b cDNA subunits); assay: Whole cell patch clamp, tonic and frequency dependent block, P/Q-type channels in HEK 293 (Example 5); details: in general
Experimental: as §1, §2, §3

[5] = molecular target: P/Q-type channels (α1A+α2δ+β1b cDNA subunits) (UniProt P54282); assay: as above
Experimental: as §1, §2, §3

[6] = Table 4 summary, 0.2 Hz, L-type, unit not given in Table 4 (μM in Table 3), read-out: L (IC50 values)
[7] = α1C (L-type), 0.03 Hz, read-out: Estimated IC50 (μM) 0.03 Hz
[8] = α1C (L-type), 0.2 Hz, read-out: Estimated IC50 (μM) 0.2 Hz
[9] = Table 4 summary, 0.2 Hz, N-type, unit not given in Table 4 (μM in Table 1), read-out: N (IC50 values)
[10] = α1B (N-type), 0.03 Hz, read-out: Estimated IC50 (μM) 0.03 Hz
[11] = α1B (N-type), 0.2 Hz, read-out: Estimated IC50 (μM) 0.2 Hz
[12] = Table 4 summary, 0.2 Hz, P/Q-type, unit not given in Table 4 (μM in Table 2), read-out: P/Q (IC50 values)
[13] = α1A (P/Q-type), 0.03 Hz, read-out: Estimated IC50 (μM) 0.03 Hz
[14] = α1A (P/Q-type), 0.2 Hz, read-out: Estimated IC50 (μM) 0.2 Hz

SMILES | IC50 values on L-type channels compared with N-type (in words) [1] | IC50 [2, 6] [µM] | % Block (100 nM) 0.03 Hz ([2]; α1C (L-type), 0.03 Hz) [%] | % Block (100 nM) 0.2 Hz ([2]; α1C (L-type), 0.2 Hz) [%] | IC50 [2, 7] [µM] | IC50 [2, 8] [µM] | N-type channel inhibition at higher frequencies (in words) ([3]; 0.2 Hz) | IC50 [3, 9] [µM] | % Block (100 nM) 0.03 Hz ([3]; α1B (N-type)) [%] | % Block (100 nM) 0.2 Hz ([3]; α1B (N-type)) [%] | IC50 [3, 10] [µM] | IC50 [3, 11] [µM] | IC50 values on P/Q-type channels compared with N-type (in words) [4] | IC50 [5, 12] [µM] | % Block (100 nM) 0.03 Hz ([5]; α1A (P/Q-type), 0.03 Hz) [%] | % Block (100 nM) 0.2 Hz ([5]; α1A (P/Q-type), 0.2 Hz) [%] | IC50 [5, 13] [µM] | IC50 [5, 14] [µM]
O=C(CC(c1ccccc1)c1ccccc1)N1CCN(C(c2ccccc2)c2ccccc2)CC1 [39-1-B4] | higher than those exhibited with respect to N-type channels | 0.3 | 19 | 29 | 0.5 | 0.3 | most potent inhibitors at higher frequencies | 0.04 | 34 | 72 | 0.2 | 0.04 | higher than those exhibited with respect to N-type channels | 0.12 | 31 | 52 | 0.65 | 0.12
COc1cc(CN2CCN(CCCCCC(c3ccc(F)cc3)c3ccc(F)cc3)CC2)cc(OC)c1OC [39-45-3] | higher than those exhibited with respect to N-type channels | 0.37 | 15 | 26 | 0.74 | 0.37 | most potent inhibitors at higher frequencies | 0.03 | 50 | 79 | 0.1 | 0.03 | higher than those exhibited with respect to N-type channels | 0.09 | 27 | 58 | 0.41 | 0.09
O=C(CCCCC(c1ccccc1)c1ccccc1)N1CCC(NCC2CCCCC2)CC1 [JM-G-10] | higher than those exhibited with respect to N-type channels | 0.3 | 7 | 15 | 1.17 | 0.3 | most potent inhibitors at higher frequencies | 0.06 | 38 | 63 | 0.17 | 0.06 | higher than those exhibited with respect to N-type channels | 0.07 | 28 | 62 | 0.3 | 0.07
O=C(CCCCC(c1ccccc1)c1ccccc1)N1CCN(C/C=C/c2ccccc2)CC1 [MC-34D] | higher than those exhibited with respect to N-type channels | 0.39 | 14 | 24 | 0.63 | 0.39 | most potent inhibitors at higher frequencies | 0.05 | 47 | 73 | 0.12 | 0.05 | higher than those exhibited with respect to N-type channels | 0.08 | 31 | 56 | 0.35 | 0.08
